This is an account of results in patent US20230011869A1 (Hoffmann-La Roche Inc., priority 2018, published 2023).

Structures can show the parent of a compound that is named as a salt.

The test system of one assay is Acinetobacter baumannii ATCC17978. Kind of assay: Antimicrobial susceptibility testing: 90% growth inhibitory concentration (IC90) determination, Iso-Sensitest broth. It counts as cell-based. As to conditions: 90% growth inhibitory concentration, Acinetobacter baumannii ATCC17978, Iso-Sensitest broth, OD 600 nm over 16 h; read-out: ATCC17978 IC90. The procedure: Antimicrobial Susceptibility Testing:
90% Growth Inhibitory Concentration (IC90) Determination
The in vitro antimicrobial activity of the compounds was determined according to the following procedure:
The assay used a 10-points Iso-Sensitest broth medium to measure quantitatively the in vitro activity of the compounds against Acinetobacter baumannii ATCC17978 and Acinetobacter baumannii ATCC17961.
Microtiter plates were incubated at 35±2° C.
Bacterial cell growth was determined with the measurement of optical density at λ=600 nm each 20 minutes over a time course of 16 h. Growth inhibition was calculated during the logarithmic growth of the bacterial cells with determination of the concentration inhibiting 50% (IC50) and 90% (IC90) of the growth.
With `Cc1cc(Nc2nccn3c(-c4ccc(OC(F)F)cc4)cnc23)ccc1C(=O)N1CCC(CCN)CC1` [Example 3, (4-(2-Aminoethyl)piperidin-1-yl)(4-((3-(4-(difluoromethoxy)phenyl)imidazo[1,2-a]pyrazin-8-yl)amino)-2-methylphenyl)methanone hydrochloride], the IC90 was 110 nM.
The same measure, in the same setting: next, `Cc1cc(Nc2nccn3c(-c4ccc(OC(F)F)cc4)cnc23)ccc1C(=O)N1CCC(C(N)=O)CC1` [Example 4, 1-(4-((3-(4-(difluoromethoxy)phenyl)imidazo[1,2-a]pyrazin-8-yl)amino)-2-methylbenzoyl)piperidine-4-carboxamide]: 120 nM; `COc1ccc(-c2cnc3c(Nc4ccc(C(=O)N5CCN(C)CC5)c(C)c4)nccn23)cc1` [Example 5, (4-((3-(4-methoxyphenyl)imidazo[1,2-a]pyrazin-8-yl)amino)-2-methylphenyl)(4-methylpiperazin-1-yl)methanone]: 1200 nM.
With `COc1ccc(-c2cnc3c(Nc4ccc(C(=O)N5CCOCC5)c(C)c4)nccn23)cc1` [Example 6, (4-((3-(4-methoxyphenyl)imidazo[1,2-a]pyrazin-8-yl)amino)-2-methylphenyl)(morpholine)methanone], the IC90 is 350 nM.
As for `COc1ccc(-c2cnc3c(Nc4ccc(C(=O)N5CCC(O)CC5)c(C)c4)nccn23)cc1` [Example 7, (4-hydroxypiperidin-1-yl)(4-((3-(4-methoxyphenyl)imidazo[1,2-a]pyrazin-8-yl)amino)-2-methylphenyl)methanone], the IC90 is 660 nM.
In the case of `Cc1cc(Nc2nccn3c(-c4ccc(OC(F)F)cc4)cnc23)ccc1C(=O)N1CCC(n2cncn2)CC1` [Example 8, (4-(1H-1,2,4-triazol-1-yl)piperidin-1-yl)(4-((3-(4-(difluoromethoxy)phenyl)imidazo[1,2-a]pyrazin-8-yl)amino)-2-methylphenyl)methanone], the IC90 was found to be 130 nM.
Take `Cc1cc(Nc2nccn3c(-c4ccc(OC(F)F)cc4)cnc23)ccc1C(=O)N1CCC(N2CCNC2=O)CC1` [Example 9, 1-(1-(4-((3-(4-(difluoromethoxy)phenyl)imidazo[1,2-a]pyrazin-8-yl)amino)-2-methylbenzoyl)piperidin-4-yl)imidazolidin-2-one]: the IC90 was 410 nM.
Same read-out and setting: the result for `Cc1cc(Nc2nccn3c(-c4ccc(OC(F)F)cc4)cnc23)ccc1C(=O)N1CCCC(C(N)=O)C1` (stereo not shown) [Example 10, 1-(4-((3-(4-(difluoromethoxy)phenyl)imidazo[1,2-a]pyrazin-8-yl)amino)-2-methylbenzoyl)piperidine-3-carboxamide] reads 1600 nM.
On the same count and under the same terms, the result for `CCOC(=O)NC1CCN(C(=O)c2ccc(Nc3nccn4c(-c5ccc(OC(F)F)cc5)cnc34)cc2C)CC1` [Example 11, ethyl (1-(4-((3-(4-(difluoromethoxy)phenyl)imidazo[1,2-a]pyrazin-8-yl)amino)-2-methylbenzoyl)piperidin-4-yl)carbamate] reads 580 nM; that for `Cc1cc(Nc2nccn3c(-c4ccc(OC(F)F)cc4)cnc23)ccc1C(=O)N1CCC(Oc2ncccn2)CC1` [Example 12], 720 nM; that for `Cc1cc(Nc2nccn3c(-c4ccc(OC(F)F)cc4)cnc23)ccc1C(=O)N1CCC(c2nncn2C)CC1` [Example 13, (4-((3-(4-(difluoromethoxy)phenyl)imidazo[1,2-a]pyrazin-8-yl)amino)-2-methylphenyl)(4-(4-methyl-4H-1,2,4-triazol-3-yl)piperidin-1-yl)methanone], 130 nM.
On the same count and under the same terms, the result for `COc1ccc(-c2cnc3c(Nc4ccc(C(=O)N5CCC(C(=O)N6CCNCC6)CC5)c(C)c4)nccn23)cc1F` [Example 14, (1-(4-((3-(3-fluoro-4-methoxyphenyl)imidazo[1,2-a]pyrazin-8-yl)amino)-2-methylbenzoyl)piperidin-4-yl)(piperazin-1-yl)methanone hydrochloride] reads 140 nM; that for `CNC(=O)C1CCN(C(=O)c2ccc(Nc3nccn4c(-c5ccc(OC(F)F)cc5)cnc34)cc2C)CC1` [Example 15, 1-(4-((3-(4-(difluoromethoxy)phenyl)imidazo[1,2-a]pyrazin-8-yl)amino)-2-methylbenzoyl)-N-methylpiperidine-4-carboxamide], 150 nM; that for `Cc1cc(Nc2nccn3c(-c4ccc(OC(F)F)cc4)cnc23)ccc1C(=O)N1CCC(Cn2cccn2)CC1` [Example 16, (4-((1H-pyrazol-1-yl)methyl)piperidin-1-yl)(4-((3-(4-(difluoromethoxy)phenyl)imidazo[1,2-a]pyrazin-8-yl)amino)-2-methylphenyl)methanone], 930 nM.
Consider `Cc1cc(Nc2nccn3c(-c4ccc(OC(F)F)cc4)cnc23)ccc1C(=O)N1CCC2(CC1)CNCCO2` [Example 17, (4-((3-(4-(difluoromethoxy)phenyl)imidazo[1,2-a]pyrazin-8-yl)amino)-2-methylphenyl)(1-oxa-4,9-diazaspiro[5.5]undecan-9-yl)methanone], for which the IC90 worked out at 1300 nM.
For the compound `Cc1cc(Nc2nccn3c(-c4ccc(OC(F)F)cc4)cnc23)ccc1C(=O)N1CCC(CN)CC1` [Example 18, (4-(aminomethyl)piperidin-1-yl)(4-((3-(4-(difluoromethoxy)phenyl)imidazo[1,2-a]pyrazin-8-yl)amino)-2-methylphenyl)methanone hydrochloride], the IC90 came to 150 nM.
Turning to `Cc1cc(Nc2nccn3c(-c4ccc(OC(F)F)cc4)cnc23)ccc1C(=O)N1CCC(C2CNC2)CC1` [Example 20, (4-(azetidin-3-yl)piperidin-1-yl)(4-((3-(4-(difluoromethoxy)phenyl)imidazo[1,2-a]pyrazin-8-yl)amino)-2-methylphenyl)methanone hydrochloride], the IC90 came to 160 nM.
Turning to `COc1ccc(-c2cnc3c(Nc4ccc(C(=O)N5CCOCC5)c(C)c4)nccn23)cc1Cl` [Example 21, (4-((3-(3-chloro-4-methoxyphenyl)imidazo[1,2-a]pyrazin-8-yl)amino)-2-methylphenyl)(morpholino)methanone], the IC90 stood at 240 nM.
`COc1ccc(-c2cnc3c(Nc4ccc(C(=O)N5CCN(C)CC5)c(C)c4)nccn23)cc1Cl` [Example 22, (4-((3-(3-chloro-4-methoxyphenyl)imidazo[1,2-a]pyrazin-8-yl)amino)-2-methylphenyl)(4-methylpiperazin-1-yl)methanone]: the IC90 is 1300 nM.
In the case of `COc1ccc(-c2cnc3c(Nc4ccc(C(=O)N5CCOC(CN(C)C)C5)c(C)c4)nccn23)cc1F` (stereo not shown) [Example 23, [2-[(dimethylamino)methyl]morpholin-4-yl]-[4-[[3-(3-fluoro-4-methoxy-phenyl)imidazo[1,2-a]pyrazin-8-yl]amino]-2-methyl-phenyl]methanone;2,2,2-trifluoroacetic acid], the IC90 was 1100 nM.
Turning to `Cc1cc(Nc2nccn3c(-c4ccc(OC(F)F)cc4)cnc23)ccc1C(=O)N1CCN(CCN)CC1` [Example 24, [4-(2-aminoethyl)piperazin-1-yl]-[4-[[3-[4-(difluoromethoxy)phenyl]imidazo[1,2-a]pyrazin-8-yl]amino]-2-methyl-phenyl]methanone], the IC90 amounted to 670 nM.
With `CN(C)CCN1CCN(C(=O)c2ccc(Nc3nccn4c(-c5ccc(OCC#N)c(F)c5Cl)cnc34)cc2Cl)CC1` [Example 25, 2-[3-chloro-4-[8-[3-chloro-4-[4-[2-(dimethylamino)ethyl]piperazine-1-carbonyl]anilino]imidazo[1,2-a]pyrazin-3-yl]-2-fluoro-phenoxy]acetontrile], the IC90 worked out at 140 nM.
`COc1ccc(-c2cnc3c(Nc4ccc(C(=O)N5CCN(CCN(C)C)CC5)c(C)c4)nccn23)c(F)c1F` [Example 27]: the IC90 amounted to 160 nM.
`COc1ccc(-c2cnc3c(Nc4ccc(C(=O)N5CCC(CN)CC5)c(C)c4)nccn23)c(F)c1F` [Example 28, (4-(aminomethyl)piperidin-1-yl)(4-((3-(2,3-difluoro-4-methoxyphenyl)imidazo[1,2-a]pyrazin-8-yl)amino)-2-methylphenyl)methanone]: the IC90 worked out at 170 nM.
In the case of `COc1ccc(-c2cnc3c(Nc4ccc(C(=O)N5CCC(CN(C)C)CC5)c(C)c4)nccn23)c(F)c1F` [Example 29, (4-((3-(2,3-difluoro-4-methoxyphenyl)imidazo[1,2-a]pyrazin-8-yl)amino)-2-methylphenyl)(4-((dimethylamino)methyl)piperidin-1-yl)methanone], the IC90 was 120 nM.
On to `CCc1cc(Nc2nccn3c(-c4ccc(OCC#N)c(F)c4F)cnc23)ccc1C(=O)N1CCN(CCN(C)C)CC1` [Example 30, 2-(4-(8-((4-(4-(2-(dimethylamino)ethyl)piperazine-1-carbonyl)-3-ethylphenyl)amino)imidazo[1,2-a]pyrazin-3-yl)-2,3-difluorophenoxy)acetonitrile], for which the IC90 came to 130 nM.
`Cc1cc(Nc2nccn3c(-c4ccc(OCC#N)c(F)c4F)cnc23)ccc1C(=O)N1CCC(CN)CC1` [Example 31, 2-[4-[8-[4-[4-(aminomethyl)piperidine-1-carbonyl]-3-methyl-anilino]imidazo[1,2-a]pyrazin-3-yl]-2,3-difluoro-phenoxy]acetonitrile;2,2,2-trifluoroacetic acid]: the IC90 was 120 nM.

Staying with this assay, now noted: Acinetobacter baumannii, ATCC17978, 16 h, read-out: ATCC17978 IC90, 90% growth inhibitory concentration, Acinetobacter baumannii ATCC17978, Iso-Sensitest broth, OD 600 nm over 16 h.
In the case of `COc1cc(Cl)c(-c2cnc3c(Nc4ccc(C(=O)N5CCC(CN)CC5)c(C)c4)nccn23)cc1F` [Example 26, [4-(aminomethyl)-1-piperidyl]-[4-[[3-(2-chloro-5-fluoro-4-methoxy-phenyl)imidazo[1,2-a]pyrazin-8-yl]amino]-2-methyl-phenyl]methanone hydrochloride], the IC90 was found to be 370 nM.
